Experimental data from patent publication EP1336409B1 (priority 1995, dated 1997).

System: spinal pia-arachnoid membranes
Parameters: species or system Macaque nemestrina monkeys
Conditions: read-out: IC50, displacement of [125I]SNX-111 binding

[Nle^12] SNX-111 [SNX-194]
IC50: 41 µM
